US10670605B2, “Cysteine reactive probes and uses thereof” (The Scripps Research Institute, priority 2015, dated 2020)

Tests used:
Experiment in all cases: Competitive isoTOP-ABPP, cell lysates;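 on isoTOP-ABPP reactivity profile ratio, O00170 C122: Heavy/light ratio DMSO over fragment-treated so higher means more cysteine engagement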;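 on isoTOP-ABPP reactivity profile ratio, P63244 C182: Heavy/light ratio DMSO over fragment-treated so higher means more cysteine engagement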
Type in all cases: binding
ZNF217 C286 (O75362) = ZNF217 C286 (O75362) (Homo sapiens, UniProt O75362); conditions: 500 μm
SAMHD1 C522 (Q9Y3Z3) = SAMHD1 C522 (Q9Y3Z3) (Homo sapiens, UniProt Q9Y3Z3); conditions: 500 μm
GNB2L1 C182 (P63244) = GNB2L1 C182 (P63244) (Homo sapiens, UniProt P63244); conditions: 500 μm;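 on isoTOP-ABPP reactivity profile ratio, P63244 C182: Heavy/light ratio DMSO over fragment-treated so higher means more cysteine engagement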
GSTP1 C48 (P09211) = GSTP1 C48 (P09211) (Homo sapiens, UniProt P09211); conditions: 500 μm
UCHL3 C95 (P15374) = biological target: T1, UCHL3 C95 (P15374) (Homo sapiens, UniProt P15374); conditions: 500 μm
T1 sequence (P15374 1-230): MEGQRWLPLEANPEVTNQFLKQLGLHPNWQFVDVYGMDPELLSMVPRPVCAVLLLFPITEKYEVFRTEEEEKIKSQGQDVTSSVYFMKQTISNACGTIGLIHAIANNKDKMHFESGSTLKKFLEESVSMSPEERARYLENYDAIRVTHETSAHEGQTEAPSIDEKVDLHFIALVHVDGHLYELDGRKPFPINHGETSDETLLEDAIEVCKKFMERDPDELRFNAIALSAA

IDH1 C269 (O75874) = IDH1 C269 (O75874) (Homo sapiens, UniProt O75874); conditions: 500 μm; for isoTOP-ABPP reactivity profile ratio, O75874_C269: in-vitro_ramos_231
UBE2S C118 (Q16763) = biological target: T2, UBE2S C118 (Q16763) (Homo sapiens, UniProt Q16763); conditions: 500 μm
T2 sequence (Q16763 1-222): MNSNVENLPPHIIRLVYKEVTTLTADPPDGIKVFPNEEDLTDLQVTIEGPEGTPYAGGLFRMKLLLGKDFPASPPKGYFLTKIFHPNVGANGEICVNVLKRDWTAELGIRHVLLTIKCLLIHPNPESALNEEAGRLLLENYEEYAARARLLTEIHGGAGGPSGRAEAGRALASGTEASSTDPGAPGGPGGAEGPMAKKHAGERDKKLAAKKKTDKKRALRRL

USP22 C171 (Q9UPT9) = biological target: T3, USP22 C171 (Q9UPT9) (Homo sapiens, UniProt Q9UPT9); conditions: 500 μm, in-vitro_ramos
T3 sequence (Q9UPT9 1-525): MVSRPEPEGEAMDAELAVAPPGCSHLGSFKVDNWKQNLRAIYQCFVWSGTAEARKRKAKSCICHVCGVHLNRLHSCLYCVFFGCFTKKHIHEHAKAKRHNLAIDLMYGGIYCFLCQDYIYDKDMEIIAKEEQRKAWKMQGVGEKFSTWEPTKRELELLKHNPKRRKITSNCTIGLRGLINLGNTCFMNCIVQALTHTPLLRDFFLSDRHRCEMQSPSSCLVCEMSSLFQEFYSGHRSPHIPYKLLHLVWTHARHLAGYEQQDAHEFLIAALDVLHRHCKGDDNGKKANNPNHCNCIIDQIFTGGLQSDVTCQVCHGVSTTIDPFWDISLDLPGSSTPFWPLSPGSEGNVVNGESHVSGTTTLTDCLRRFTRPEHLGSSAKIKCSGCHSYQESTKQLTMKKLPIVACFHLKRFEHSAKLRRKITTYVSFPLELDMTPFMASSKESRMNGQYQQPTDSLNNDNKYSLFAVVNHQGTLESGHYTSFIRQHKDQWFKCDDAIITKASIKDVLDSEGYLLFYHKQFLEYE

AIP C122 (O00170) = biological target: T4, AIP C122 (O00170) (Homo sapiens, UniProt O00170); conditions: 500 μm;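 further: Heavy/light ratio DMSO over fragment-treated so higher means more cysteine engagement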
T4 sequence (O00170 1-330): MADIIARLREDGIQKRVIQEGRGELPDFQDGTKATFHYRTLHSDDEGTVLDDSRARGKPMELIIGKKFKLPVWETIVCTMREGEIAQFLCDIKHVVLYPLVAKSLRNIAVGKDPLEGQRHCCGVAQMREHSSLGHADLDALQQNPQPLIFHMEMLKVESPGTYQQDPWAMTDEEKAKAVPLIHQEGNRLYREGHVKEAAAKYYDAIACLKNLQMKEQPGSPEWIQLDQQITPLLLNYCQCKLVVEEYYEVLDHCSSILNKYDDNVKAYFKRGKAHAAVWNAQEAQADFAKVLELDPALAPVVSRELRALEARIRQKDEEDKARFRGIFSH

ZNF217 C286 (O75362), sequence (O75362 whole entry): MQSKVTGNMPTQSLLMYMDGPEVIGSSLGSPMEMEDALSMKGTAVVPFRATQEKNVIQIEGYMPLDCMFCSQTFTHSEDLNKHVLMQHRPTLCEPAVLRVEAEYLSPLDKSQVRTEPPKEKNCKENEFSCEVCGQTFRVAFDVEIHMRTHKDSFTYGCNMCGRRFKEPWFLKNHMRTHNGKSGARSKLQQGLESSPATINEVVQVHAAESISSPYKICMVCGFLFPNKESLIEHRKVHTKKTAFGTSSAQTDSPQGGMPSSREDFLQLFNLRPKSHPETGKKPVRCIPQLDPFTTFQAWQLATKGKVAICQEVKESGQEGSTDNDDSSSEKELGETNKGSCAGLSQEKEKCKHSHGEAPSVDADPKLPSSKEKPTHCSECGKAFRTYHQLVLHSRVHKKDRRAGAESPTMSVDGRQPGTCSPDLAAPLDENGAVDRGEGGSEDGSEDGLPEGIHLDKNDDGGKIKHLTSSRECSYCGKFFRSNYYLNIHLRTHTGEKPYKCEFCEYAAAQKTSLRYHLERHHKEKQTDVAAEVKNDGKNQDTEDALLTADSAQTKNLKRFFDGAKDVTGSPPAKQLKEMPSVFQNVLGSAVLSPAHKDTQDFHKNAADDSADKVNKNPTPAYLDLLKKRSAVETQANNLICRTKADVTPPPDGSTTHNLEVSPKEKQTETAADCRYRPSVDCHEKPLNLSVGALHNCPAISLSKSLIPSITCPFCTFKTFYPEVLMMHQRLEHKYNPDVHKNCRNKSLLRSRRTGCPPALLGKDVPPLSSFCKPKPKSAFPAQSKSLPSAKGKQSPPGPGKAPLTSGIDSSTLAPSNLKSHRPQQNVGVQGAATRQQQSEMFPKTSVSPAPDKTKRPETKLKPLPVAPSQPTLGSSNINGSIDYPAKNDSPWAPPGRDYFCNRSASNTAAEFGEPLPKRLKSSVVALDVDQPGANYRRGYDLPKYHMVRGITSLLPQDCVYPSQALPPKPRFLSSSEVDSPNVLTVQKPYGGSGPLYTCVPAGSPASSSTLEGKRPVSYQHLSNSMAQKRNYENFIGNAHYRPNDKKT
SAMHD1 C522 (Q9Y3Z3), sequence (Q9Y3Z3 whole entry, the tested form may be a part): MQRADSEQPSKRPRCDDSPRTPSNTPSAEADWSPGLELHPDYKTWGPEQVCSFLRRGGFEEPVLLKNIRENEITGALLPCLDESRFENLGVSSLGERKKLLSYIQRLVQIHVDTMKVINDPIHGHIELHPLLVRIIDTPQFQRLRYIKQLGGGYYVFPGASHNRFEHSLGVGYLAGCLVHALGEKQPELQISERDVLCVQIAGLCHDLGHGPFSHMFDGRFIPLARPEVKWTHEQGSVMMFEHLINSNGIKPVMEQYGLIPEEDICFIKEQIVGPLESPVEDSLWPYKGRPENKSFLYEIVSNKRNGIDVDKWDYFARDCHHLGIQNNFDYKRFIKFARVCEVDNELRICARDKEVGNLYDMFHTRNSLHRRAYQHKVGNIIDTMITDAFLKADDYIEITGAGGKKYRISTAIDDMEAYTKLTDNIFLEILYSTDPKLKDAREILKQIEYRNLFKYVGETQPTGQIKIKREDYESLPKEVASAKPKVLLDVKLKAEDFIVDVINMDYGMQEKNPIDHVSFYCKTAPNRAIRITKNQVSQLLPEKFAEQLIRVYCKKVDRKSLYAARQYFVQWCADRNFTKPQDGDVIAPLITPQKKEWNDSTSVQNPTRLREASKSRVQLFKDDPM
GSTP1 C48 (P09211), sequence (P09211 whole entry): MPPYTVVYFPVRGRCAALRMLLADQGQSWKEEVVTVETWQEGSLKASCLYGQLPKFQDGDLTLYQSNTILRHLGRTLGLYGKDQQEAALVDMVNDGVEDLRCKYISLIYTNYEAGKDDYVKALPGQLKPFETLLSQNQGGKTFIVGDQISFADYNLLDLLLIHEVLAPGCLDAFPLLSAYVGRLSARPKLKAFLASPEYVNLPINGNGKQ
IDH1 C269 (O75874), sequence (O75874 whole entry): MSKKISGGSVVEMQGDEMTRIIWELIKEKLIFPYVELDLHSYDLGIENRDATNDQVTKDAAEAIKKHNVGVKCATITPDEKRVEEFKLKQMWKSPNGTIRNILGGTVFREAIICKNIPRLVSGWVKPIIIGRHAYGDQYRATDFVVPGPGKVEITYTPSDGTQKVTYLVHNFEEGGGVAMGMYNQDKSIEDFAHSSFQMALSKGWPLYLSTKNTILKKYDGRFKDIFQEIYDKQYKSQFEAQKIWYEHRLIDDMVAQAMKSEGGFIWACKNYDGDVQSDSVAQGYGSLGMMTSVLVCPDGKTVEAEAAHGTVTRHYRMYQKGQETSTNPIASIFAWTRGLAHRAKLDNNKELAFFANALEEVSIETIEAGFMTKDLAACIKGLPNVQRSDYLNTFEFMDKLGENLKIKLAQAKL

| isoTOP-ABPP reactivity profile ratio, P15374_C95 (UCHL3 C95 (P15374); in-vitro_ramos) | isoTOP-ABPP reactivity profile ratio, P63244_C182 (GNB2L1 C182 (P63244); in-vitro_ramos) | isoTOP-ABPP reactivity profile ratio, P09211_C48 (GSTP1 C48 (P09211); in-vitro_ramos) | isoTOP-ABPP reactivity profile ratio, O00170_C122 (AIP C122 (O00170); in-vitro_ramos) | isoTOP-ABPP reactivity profile ratio, Q16763_C118 (UBE2S C118 (Q16763); in-vitro_ramos) | isoTOP-ABPP reactivity profile ratio, O75362_C286 (ZNF217 C286 (O75362); in-vitro_ramos_231) | isoTOP-ABPP reactivity profile ratio, P63244_C182 (GNB2L1 C182 (P63244); in-vitro_ramos_231) | isoTOP-ABPP reactivity profile ratio, P09211_C48 (GSTP1 C48 (P09211); in-vitro_ramos_231) | isoTOP-ABPP reactivity profile ratio, O75874_C269 (IDH1 C269 (O75874)) | isoTOP-ABPP reactivity profile ratio, P15374_C95 (UCHL3 C95 (P15374); in-vitro_ramos_231) | isoTOP-ABPP reactivity profile ratio, Q16763_C118 (UBE2S C118 (Q16763); in-vitro_ramos_231) | Structure (SMILES) | also measured |
| --- | --- | --- | --- | --- | --- | --- | --- | --- | --- | --- | --- | --- |
|  |  |  |  |  |  |  |  |  |  |  | C=CC(=O)N1CCC(c2noc3ccc(F)cc23)CC1 [compound 37] | isoTOP-ABPP reactivity ratio, O75362_C286 (ZNF217 C286 (O75362); in-vitro_ramos): 0.9; isoTOP-ABPP reactivity ratio, Q9Y3Z3_C522 (SAMHD1 C522 (Q9Y3Z3); in-vitro_ramos): 0.7; isoTOP-ABPP reactivity ratio, P63244_C182 (GNB2L1 C182 (P63244); in-vitro_ramos): 0.9; isoTOP-ABPP reactivity ratio, P09211_C48 (GSTP1 C48 (P09211); in-vitro_ramos): 1.2 |
|  |  |  |  |  |  |  |  |  |  |  | C=CC(=O)Nc1cc(C)c(Br)cc1C [compound 40] | isoTOP-ABPP reactivity ratio, P15374_C95 (UCHL3 C95 (P15374); in-vitro_ramos): 0.9; isoTOP-ABPP reactivity ratio, Q9Y3Z3_C522 (SAMHD1 C522 (Q9Y3Z3); in-vitro_ramos_231): 0.8; isoTOP-ABPP reactivity ratio, P63244_C182 (GNB2L1 C182 (P63244); in-vitro_ramos): 0.6; isoTOP-ABPP reactivity ratio, P63244_C182 (GNB2L1 C182 (P63244); in-vitro_ramos_231): 1.0; isoTOP-ABPP reactivity ratio, P09211_C48 (GSTP1 C48 (P09211); in-vitro_ramos): 1.6; isoTOP-ABPP reactivity ratio, P09211_C48 (GSTP1 C48 (P09211); in-vitro_ramos_231): 1.6; isoTOP-ABPP reactivity ratio, O75874_C269 (IDH1 C269 (O75874); in-vitro_ramos): 0.8; isoTOP-ABPP reactivity ratio, Q16763_C118 (UBE2S C118 (Q16763); in-vitro_ramos): 0.8; isoTOP-ABPP reactivity ratio, Q16763_C118 (UBE2S C118 (Q16763); in-vitro_ramos_231): 0.9 |
| 0.9 | 0.8 | 0.7 | 0.8 | 0.8 |  |  |  |  |  |  | N#CC(=Cc1ccc(-c2ccccc2Cl)o1)C(N)=O [compound 42] | isoTOP-ABPP reactivity profile ratio, O75362_C286 (ZNF217 C286 (O75362); in-vitro_ramos): 1.0; isoTOP-ABPP reactivity profile ratio, Q9UPT9_C171 (USP22 C171 (Q9UPT9)): 1.0 |
|  |  |  |  |  | 20.0 | 0.9 | 19.7 | 20.0 |  |  | CC1CCc2ccccc2N1C(=O)CCl (stereo not drawn) [compound 45] |  |
|  |  |  |  |  | 0.9 | 0.8 | 1.0 | 0.6 | 1.0 | 1.0 | C=CC(=O)N(c1ccccc1)C1CCCCC1 [compound 46] |  |
|  |  |  |  |  |  | 0.8 | 2.3 | 20.0 | 1.3 | 0.8 | O=C(CCl)N1CCc2cc(Br)ccc21 [compound 50] | isoTOP-ABPP reactivity profile ratio, O00170_C122 (AIP C122 (O00170); in-vitro_ramos_231): 2.3 |
| 0.9 | 0.9 | 1.0 |  | 0.9 | 0.9 | 0.7 | 1.1 |  |  |  | O=C(CCl)Nc1cccc2ncccc12 [compound 51] | isoTOP-ABPP reactivity profile ratio, O75362_C286 (ZNF217 C286 (O75362); in-vitro_ramos): 20.0; isoTOP-ABPP reactivity profile ratio, O00170_C122 (AIP C122 (O00170); in-vitro_ramos_231): 1.4 |
|  |  | 1.9 | 1.4 |  | 1.0 | 1.0 | 1.0 |  | 1.2 | 1.2 | O=C(CCl)Nc1ccc(-c2ccccc2)cc1 [compound 52] | isoTOP-ABPP reactivity profile ratio, Q9Y3Z3_C522 (SAMHD1 C522 (Q9Y3Z3); in-vitro_ramos_231): 1.2 |
| 0.7 | 0.8 | 1.2 | 0.9 | 0.8 | 1.1 | 0.9 | 2.3 |  |  | 1.0 | C=CC(=O)N1CCC(Cc2ccccc2)CC1 [compound 53] | isoTOP-ABPP reactivity profile ratio, Q9Y3Z3_C522 (SAMHD1 C522 (Q9Y3Z3); in-vitro_ramos): 0.7 |
